Data: US9951049B2, “Pyrazole linked benzimidazole conjugates and a process for preparation thereof” (Council of Scientific & Industrial Reseach, priority 2014, dated 2018)
Entries after “also recorded” stand apart in the source; their conditions may differ. Where two headings read alike, the source gives them in different places.

Legend:
Renal cancer cell lines = assay: NCI SRB screen, Renal panel average; details: Homo sapiens, 48 h, read-out: Log10 GI50 (converted)
UACC-257 = assay: NCI SRB screen, UACC-257; details: Homo sapiens, UACC-257, 48 h, read-out: GI50 values
SK-MEL-5 = assay: NCI SRB screen, SK-MEL-5; details: Homo sapiens, SK-MEL-5, 48 h, read-out: GI50 values, Melanoma, SK-MEL-5
BT-549 = assay: NCI SRB screen, BT-549; details: Homo sapiens, BT-549, 48 h, read-out: GI50 values
K-562 = assay: NCI SRB screen, K-562; details: Homo sapiens, K562, 48 h, read-out: GI50 values
M14 = assay: NCI SRB screen, M14; details: Homo sapiens, M14, 48 h, read-out: GI50 values
Melanoma cell lines = assay: NCI SRB screen, Melanoma panel average; details: Homo sapiens, 48 h, read-out: Log10 GI50 (converted)
NCI-H23 = assay: NCI SRB screen, NCI-H23; details: Homo sapiens, NCI-H23, 48 h, read-out: GI50 values
KM12 = assay: NCI SRB screen, KM12; details: Homo sapiens, KM12, 48 h, read-out: GI50 values
HOP-62 = assay: NCI SRB screen, HOP-62; details: Homo sapiens, HOP-62, 48 h, read-out: GI50 values
MDA-MB-435 = assay: NCI SRB screen, MDA-MB-435 (Breast panel); details: Homo sapiens, MDA-MB-435, 48 h, read-out: GI50 values
SNB-75 = assay: NCI SRB screen, SNB-75; details: Homo sapiens, SNB-75, 48 h, read-out: GI50 values
ACHN = assay: NCI SRB screen, ACHN; details: Homo sapiens, 48 h, read-out: GI50 values
DU-145 = assay: NCI SRB screen, DU-145; details: Homo sapiens, DU-145, 48 h, read-out: GI50 values
CNS cancer cell lines = assay: NCI SRB screen, CNS panel average; details: Homo sapiens, 48 h, read-out: Log10 GI50 (converted)
CAKI-1 = assay: NCI SRB screen, CAKI-1; details: Homo sapiens, CAKI-1, 48 h, read-out: GI50 values
UACC-62 = assay: NCI SRB screen, UACC-62; details: Homo sapiens, UACC-62, 48 h, read-out: GI50 values
OVCAR-8 = assay: NCI SRB screen, OVCAR-8; details: Homo sapiens, OVCAR-8, 48 h, read-out: GI50 values
[1] = test system: Prostate cancer cell lines; assay: NCI SRB screen, Prostate panel average; details: Homo sapiens, 48 h, read-out: Log10 GI50 (converted)
MCF7 = assay: NCI SRB screen, MCF7; details: Homo sapiens, MCF7, 48 h, read-out: GI50 values
[2] = test system: fifty six human tumor cell lines; assay: NCI human tumor cell line screen (48 h, SRB), all cell lines; details: for GI50: Homo sapiens; for anticancer activity (in words): human cancer cell lines of the NCI panel; for Log10 TGI mean graph midpoint (MG_MID): human tumor cell lines, mean over the panel, total growth inhibition
Colon cancer cell lines = assay: NCI SRB screen, Colon panel average; details: Homo sapiens, 48 h, read-out: Log10 GI50 (converted)
NCI/ADR-RES = assay: NCI SRB screen, NCI/ADR-RES; details: Homo sapiens, 48 h, read-out: GI50 values
IGROV1 = assay: NCI SRB screen, IGROV1; details: Homo sapiens, IGROV-1, 48 h, read-out: GI50 values
HCC-2998 = assay: NCI SRB screen, HCC-2998; details: Homo sapiens, HCC 2998, 48 h, read-out: GI50 values
SNB-19 = assay: NCI SRB screen, SNB-19; details: Homo sapiens, SNB-19, 48 h, read-out: GI50 values
MOLT-4 = assay: NCI SRB screen, MOLT-4; details: Homo sapiens, MOLT-4, 48 h, read-out: GI50 values
HCT-116 = assay: NCI SRB screen, HCT-116; details: Homo sapiens, HCT-116, 48 h, read-out: GI50 values
HS 578T = assay: NCI SRB screen, HS 578T; details: Homo sapiens, 48 h, read-out: GI50 values
SF-539 = assay: NCI SRB screen, SF-539; details: Homo sapiens, 48 h, read-out: GI50 values
NCI-H226 = assay: NCI SRB screen, NCI-H226; details: Homo sapiens, NCI-H226, 48 h, read-out: GI50 values
OVCAR-5 = assay: NCI SRB screen, OVCAR-5; details: Homo sapiens, OVCAR-5, 48 h, read-out: GI50 values
SW-620 = assay: NCI SRB screen, SW-620; details: Homo sapiens, SW-620, 48 h, read-out: GI50 values
[3] = read-out: Log10 GI50 mean graph midpoint (MG_MID) (converted)

SMILES	GI50 (Renal cancer cell lines) [µM]	GI50 (UACC-257) [µM]	GI50 (SK-MEL-5) [µM]	GI50 (BT-549) [µM]	GI50 (K-562) [µM]	GI50 (M14) [µM]	GI50 (Melanoma cell lines) [µM]	GI50 (NCI-H23) [µM]	GI50 (KM12) [µM]	GI50 (HOP-62) [µM]	GI50 (MDA-MB-435) [µM]	GI50 (SNB-75) [µM]	GI50 (ACHN) [µM]	GI50 (DU-145) [µM]	GI50 (CNS cancer cell lines) [µM]	GI50 (CAKI-1) [µM]	GI50 (UACC-62) [µM]	GI50 (OVCAR-8) [µM]	GI50 [1] [µM]	GI50 (MCF7) [µM]	also measured
COc1cc(-c2cc(-c3nc4ccccc4[nH]3)[nH]n2)cc(OC)c1OC [6f, 2-(3-(3,4,5-trimethoxyphenyl)-1H-pyrazol-5-yl)-1H-benzo[d]imidazole]	2.63	2.1	1.34	1.8	3.08	2.57	2.09	2.26	3.15	3.54	0.93	2.83	2.77	3.9	5.25	2.24	1.64	2.35	2.88	2.79	GI50 ([2]; read-out: GI50 value range): 0.34 to 10 µM; GI50 [2, 3]: 2.88 µM; anticancer activity (in words) [2]: significant anticancer activity; also recorded: pronounced activities; Log10 TGI mean graph midpoint (MG_MID) [2]: −4.83; GI50 (Colon cancer cell lines): 4.79 µM; GI50 (NCI/ADR-RES): 2.88 µM; GI50 (IGROV1): 2.34 µM; GI50 (HCC-2998): 7.1 µM; GI50 (SNB-19): 1.78 µM; GI50 (MOLT-4): 2.13 µM; GI50 (HCT-116): 3.15 µM; GI50 (HS 578T): 6.89 µM; GI50 (SF-539): 5.11 µM; GI50 (NCI-H226): 1.14 µM; GI50 (OVCAR-5): 1.3 µM; GI50 (SW-620): 7.73 µM
Fc1ccc2[nH]c(-c3cc(-c4ccc5c(c4)OCO5)n[nH]3)nc2c1 [7g, 2-(3-(benzo[d][1,3]dioxol-5-yl)-1H-pyrazol-5-yl)-5-fluoro-1H-benzo[d]imidazole]	4.57	1.02	1.46	2.16	4.81	4.17	4.57	8.84	2.96	8.54	4.14	2.8	3.64	8.24	6.31	2.71	4.77	3.43	5.62	3.53	GI50 ([2]; read-out: GI50 value range): 0.34 to 10 µM; GI50 [2, 3]: 4.79 µM; anticancer activity (in words) [2]: significant anticancer activity; also recorded: pronounced activities; Log10 TGI mean graph midpoint (MG_MID) [2]: −4.19; GI50 (Colon cancer cell lines): 5.37 µM; GI50 (NCI/ADR-RES): 4.43 µM; GI50 (IGROV1): 3.67 µM; GI50 (HCC-2998): 5.37 µM; GI50 (SNB-19): 10 µM; GI50 (MOLT-4): 3.14 µM; GI50 (HCT-116): 4.5 µM; GI50 (HS 578T): 9.53 µM; GI50 (SF-539): 2.9 µM; GI50 (NCI-H226): 4.21 µM; GI50 (OVCAR-5): 6.44 µM; GI50 (SW-620): 9.34 µM
COc1cc(-c2cc(-c3nc4cc(Cl)ccc4[nH]3)[nH]n2)cc(OC)c1OC [8f, 5-chloro-2-(3-(3,4,5-trimethoxyphenyl)-1H-pyrazol-5-yl)-1H-benzo[d]imidazole]	3.16	2.6	1.62	2.54	3.04	2.92	2.45	2.73	3.45	3.11	2.33	2.71	2.96	3.27	3.72	2.8	1.97	2.26	2.88	2.17	GI50 ([2]; read-out: GI50 value range): 0.34 to 10 µM; GI50 [2, 3]: 3.02 µM; potency compared with compounds 6f, 6g, 7g and 10f ([2]; against all the cell lines tested): more potent; anticancer activity (in words) [2]: significant anticancer activity; also recorded: pronounced activities; Log10 TGI mean graph midpoint (MG_MID) [2]: −4.93; mean graph pattern: profile of activity and selectivity ([2]; various cell lines): an interesting profile of activity and selectivity; GI50 (Colon cancer cell lines): 3.98 µM; GI50 (NCI/ADR-RES): 3.16 µM; GI50 (IGROV1): 3.42 µM; GI50 (HCC-2998): 5.98 µM; GI50 (SNB-19): 7.25 µM; GI50 (MOLT-4): 2.02 µM; GI50 (HCT-116): 3.45 µM; GI50 (HS 578T): 3.58 µM; GI50 (SF-539): 4.66 µM; GI50 (NCI-H226): 1.88 µM; GI50 (OVCAR-5): 1.21 µM; GI50 (SW-620): 4.99 µM
